The target of series [1] is T1, AhR (Mus musculus, UniProt P30561).
T1 construct: cells that were stably transfected with a luciferase reporter gene; endogenous in cells; host or cells: H1L7.5c3 (mouse)
The series is described as follows: AhR induction, luciferase reporter gene (CALUX), mouse H1L7.5c3 cells. Format: cell-based. How it is done:
(§1) The activity on AhR of the synthesized compounds was evaluated in cells that were stably transfected with a luciferase reporter gene. They were tested in four different cell lines, namely in human (HG2L7.5c1), mouse (H1L7.5c3), rat (H4L7.5c2) and guinea pig (G16L7.5c1) cells.
(§2) The synthesized alkaloids were evaluated for their ability to induce AhR in four different cell lines, more specifically in human (HG2L7.5c1), mouse (H1L7.5c3), rat (H4L7.5c2) and guinea pig (G16L7.5c1) cells that were stably transfected with a luciferase reporter gene. The results were calculated in EC50 (M) and compared to those of dioxin (TCDD), the principal ligand of the receptor. The protocol followed is described below.
(§3) Human, mouse, rat and guinea pig cells were grown in 100 mm cell culture plates (Corning Glass Works; Corning, NY, USA) using a sterile technique, maintained in alpha-minimum essential media (α-MEM) supplemented with 10% (v/v) fetal bovine serum (FBS) and G418 (1 mg/mL), and incubated at >80% humidity and 37◦C. For the CALUX analysis, plates of stable cell clones (approximately 80–100% confluent) were trypsinized and resuspended in 20 mL α-MEM. An aliquot (100 μL) of the indicated cell suspension was added into sterile 96-well tissue culture plates (Corning), and the plates were incubated for 24 h prior to ligand exposure, allowing the cells to reach confluence. Prior to ligand addition, the wells were washed with 1 × phosphate-buffered saline (PBS), and then, cells were incubated with the indicated concentration of DMSO (10 μL/mL) or corresponding solutions of TCDD or tested compounds in DMSO for 6 h or 24 h at 37 °C. After incubation, the cells were washed twice with PBS, 100 μL of 1 × Lysis buffer (Promega; Madison, WI, USA) was added to each well, and the plate was placed on a plate shaker at room temperature until the cells were lysed (approximately 20 min). Luciferase activity was measured using an automated microplate luminometer (Anthos Lucy2, Anthos Labtec Instruments, Wals/Salzburg, Austria) in enhanced flash mode with the automatic injection of 50 μL of Promega-stabilized luciferase reagent. Examples of the induction curves of the tested compounds are available in the Supplementary Materials.
In general terms: A reporter such as luciferase makes a cellular process visible.

Series [2] addresses T2, AhR (Rattus norvegicus, UniProt P41738).
T2 construct: cells that were stably transfected with a luciferase reporter gene; endogenous in cells; host or cells: H4L7.5c2 (rat)
T2 sequence (P41738 10-853): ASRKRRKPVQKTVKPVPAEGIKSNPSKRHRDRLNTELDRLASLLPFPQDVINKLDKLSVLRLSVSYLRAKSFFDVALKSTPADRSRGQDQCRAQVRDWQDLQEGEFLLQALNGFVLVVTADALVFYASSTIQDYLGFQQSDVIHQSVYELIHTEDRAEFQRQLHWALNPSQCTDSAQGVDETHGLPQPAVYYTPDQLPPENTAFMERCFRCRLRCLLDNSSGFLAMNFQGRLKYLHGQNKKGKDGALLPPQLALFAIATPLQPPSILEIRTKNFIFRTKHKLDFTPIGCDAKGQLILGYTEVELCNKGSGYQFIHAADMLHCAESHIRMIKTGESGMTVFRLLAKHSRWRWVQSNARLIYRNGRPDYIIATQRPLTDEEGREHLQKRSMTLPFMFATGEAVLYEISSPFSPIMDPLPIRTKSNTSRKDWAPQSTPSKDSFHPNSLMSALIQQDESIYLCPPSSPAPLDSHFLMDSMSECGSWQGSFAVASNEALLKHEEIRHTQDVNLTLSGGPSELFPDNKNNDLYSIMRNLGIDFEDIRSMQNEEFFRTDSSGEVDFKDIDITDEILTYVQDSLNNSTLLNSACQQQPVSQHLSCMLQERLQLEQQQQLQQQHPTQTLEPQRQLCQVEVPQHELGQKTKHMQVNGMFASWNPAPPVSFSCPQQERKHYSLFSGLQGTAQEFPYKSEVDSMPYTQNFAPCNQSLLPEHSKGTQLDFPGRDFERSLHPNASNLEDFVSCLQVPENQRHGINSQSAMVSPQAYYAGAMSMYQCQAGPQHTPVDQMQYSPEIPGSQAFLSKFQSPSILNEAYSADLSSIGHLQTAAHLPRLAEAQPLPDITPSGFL
The series is described as follows: AhR induction, luciferase reporter gene (CALUX), rat H4L7.5c2 cells. Format: cell-based. Conditions: 6 h incubation. On the procedure: as §1, §2, §3

Series [3] concerns the target T3, AhR (Cavia porcellus, UniProt Q6J287).
T3 construct: cells that were stably transfected with a luciferase reporter gene; endogenous in cells; host or cells: G16L7.5c1 (guinea pig)
T3 sequence (Q6J287 1-846): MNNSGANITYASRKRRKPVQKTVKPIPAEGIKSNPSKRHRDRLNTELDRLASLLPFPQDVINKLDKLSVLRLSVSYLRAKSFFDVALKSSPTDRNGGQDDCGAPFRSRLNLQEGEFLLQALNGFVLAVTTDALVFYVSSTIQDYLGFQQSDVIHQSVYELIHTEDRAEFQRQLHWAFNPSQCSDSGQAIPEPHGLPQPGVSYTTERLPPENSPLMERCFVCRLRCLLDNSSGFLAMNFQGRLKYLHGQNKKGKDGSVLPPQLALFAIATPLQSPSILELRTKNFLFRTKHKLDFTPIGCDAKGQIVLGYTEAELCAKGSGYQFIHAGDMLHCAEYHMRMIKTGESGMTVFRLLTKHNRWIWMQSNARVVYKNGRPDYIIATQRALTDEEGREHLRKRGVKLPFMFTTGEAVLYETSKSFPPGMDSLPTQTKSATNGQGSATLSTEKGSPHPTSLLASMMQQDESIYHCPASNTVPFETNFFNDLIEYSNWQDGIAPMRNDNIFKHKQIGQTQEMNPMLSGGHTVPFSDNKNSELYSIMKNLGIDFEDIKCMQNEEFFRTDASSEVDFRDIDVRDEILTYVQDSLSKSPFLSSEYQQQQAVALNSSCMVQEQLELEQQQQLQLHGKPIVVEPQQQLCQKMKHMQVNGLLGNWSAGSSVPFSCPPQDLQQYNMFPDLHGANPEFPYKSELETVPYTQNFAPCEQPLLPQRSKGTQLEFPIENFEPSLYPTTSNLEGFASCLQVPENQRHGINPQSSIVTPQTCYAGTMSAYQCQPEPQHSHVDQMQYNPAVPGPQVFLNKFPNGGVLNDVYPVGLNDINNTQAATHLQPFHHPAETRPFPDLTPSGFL
As to the kind of experiment: AhR induction, luciferase reporter gene (CALUX), guinea pig G16L7.5c1 cells. The format is cell-based. To be noted: 6 h incubation. How it is done: as §1, §2, §3

For series [4], the target named is T4, AhR (Homo sapiens, UniProt P35869).
T4 construct: cells that were stably transfected with a luciferase reporter gene; endogenous in cells; host or cells: HG2L7.5c1 (human)
T4 sequence (P35869 11-848): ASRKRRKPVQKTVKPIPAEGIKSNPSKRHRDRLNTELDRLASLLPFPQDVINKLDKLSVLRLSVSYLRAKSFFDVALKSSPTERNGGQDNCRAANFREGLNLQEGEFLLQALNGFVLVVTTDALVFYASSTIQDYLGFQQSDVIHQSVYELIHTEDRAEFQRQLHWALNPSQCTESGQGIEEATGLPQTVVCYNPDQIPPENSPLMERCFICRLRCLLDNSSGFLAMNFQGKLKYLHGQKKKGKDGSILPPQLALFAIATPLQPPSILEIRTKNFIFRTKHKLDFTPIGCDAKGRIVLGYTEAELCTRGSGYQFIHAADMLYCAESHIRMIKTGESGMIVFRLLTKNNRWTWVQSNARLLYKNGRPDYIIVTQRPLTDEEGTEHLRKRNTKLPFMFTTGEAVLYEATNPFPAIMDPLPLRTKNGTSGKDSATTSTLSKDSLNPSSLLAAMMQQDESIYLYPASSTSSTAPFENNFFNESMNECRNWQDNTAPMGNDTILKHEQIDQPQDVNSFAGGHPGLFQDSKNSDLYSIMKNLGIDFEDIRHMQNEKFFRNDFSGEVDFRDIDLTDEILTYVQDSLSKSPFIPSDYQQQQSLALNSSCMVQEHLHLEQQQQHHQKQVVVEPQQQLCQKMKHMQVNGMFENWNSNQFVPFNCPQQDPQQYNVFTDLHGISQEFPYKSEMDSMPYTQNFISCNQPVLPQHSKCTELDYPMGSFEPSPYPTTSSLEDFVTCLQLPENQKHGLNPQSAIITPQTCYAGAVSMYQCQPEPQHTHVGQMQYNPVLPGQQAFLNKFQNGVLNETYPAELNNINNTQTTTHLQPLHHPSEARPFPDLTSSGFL
As to the kind of experiment: AhR induction, luciferase reporter gene (CALUX), human HG2L7.5c1 cells. The format is cell-based. To be noted: 6 h incubation.
Method: The synthesized alkaloids were evaluated for their ability to induce AhR in four different cell lines, more specifically in human (HG2L7.5c1), mouse (H1L7.5c3), rat (H4L7.5c2) and guinea pig (G16L7.5c1) cells that were stably transfected with a luciferase reporter gene [41]. The results were calculated in EC50 (M) and compared to those of dioxin (TCDD), the principal ligand of the receptor.
Human, mouse, rat and guinea pig cells were grown in 100 mm cell culture plates (Corning Glass Works; Corning, NY, USA) using a sterile technique, maintained in alpha-minimum essential media (α-MEM) supplemented with 10% (v/v) fetal bovine serum (FBS) and G418 (1 mg/mL), and incubated at >80% humidity and 37◦C. For the CALUX analysis, plates of stable cell clones (approximately 80–100% confluent) were trypsinized and resuspended in 20 mL α-MEM. An aliquot (100 μL) of the indicated cell suspension was added into sterile 96-well tissue culture plates (Corning), and the plates were incubated for 24 h prior to ligand exposure, allowing the cells to reach confluence. […] Luciferase activity was measured using an automated microplate luminometer (Anthos Lucy2, Anthos Labtec Instruments, Wals/Salzburg, Austria) in enhanced flash mode with the automatic injection of 50 μL of Promega-stabilized luciferase reagent.

The subject of series [5] is AhR. Set-up: method as in PMID 31292477. Conditions: fold reduction vs 6-FICZ; cited from earlier work.
The mark [6] stands for this setting: mouse H1L7.5c3 cells, 6 h incubation, read-out: EC50, 6 h Mouse.

Read-outs that look alike come from different tables or passages of the source.

T1 sequence (P30561 10-805 limits assumed): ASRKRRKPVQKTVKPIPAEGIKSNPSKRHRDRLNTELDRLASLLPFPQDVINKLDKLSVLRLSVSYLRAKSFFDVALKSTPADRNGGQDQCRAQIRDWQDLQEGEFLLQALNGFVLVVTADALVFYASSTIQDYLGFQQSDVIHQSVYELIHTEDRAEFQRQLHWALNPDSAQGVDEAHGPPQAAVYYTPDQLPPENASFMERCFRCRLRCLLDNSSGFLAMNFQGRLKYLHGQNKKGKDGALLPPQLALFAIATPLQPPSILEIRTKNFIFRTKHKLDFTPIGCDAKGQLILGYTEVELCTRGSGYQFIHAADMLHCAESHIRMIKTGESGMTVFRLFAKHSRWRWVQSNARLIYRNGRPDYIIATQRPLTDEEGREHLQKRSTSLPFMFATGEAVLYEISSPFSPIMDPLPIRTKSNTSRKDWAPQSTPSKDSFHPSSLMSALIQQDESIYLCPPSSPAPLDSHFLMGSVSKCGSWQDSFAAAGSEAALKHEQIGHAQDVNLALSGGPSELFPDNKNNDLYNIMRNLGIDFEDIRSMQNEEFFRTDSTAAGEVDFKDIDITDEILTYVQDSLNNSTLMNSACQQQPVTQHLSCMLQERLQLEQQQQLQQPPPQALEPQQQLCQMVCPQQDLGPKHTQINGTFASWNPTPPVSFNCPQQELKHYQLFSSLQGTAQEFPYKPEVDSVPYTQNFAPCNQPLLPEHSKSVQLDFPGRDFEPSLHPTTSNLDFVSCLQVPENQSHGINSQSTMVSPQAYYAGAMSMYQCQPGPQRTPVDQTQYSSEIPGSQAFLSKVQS
T1 sequence (P11499 whole entry partner): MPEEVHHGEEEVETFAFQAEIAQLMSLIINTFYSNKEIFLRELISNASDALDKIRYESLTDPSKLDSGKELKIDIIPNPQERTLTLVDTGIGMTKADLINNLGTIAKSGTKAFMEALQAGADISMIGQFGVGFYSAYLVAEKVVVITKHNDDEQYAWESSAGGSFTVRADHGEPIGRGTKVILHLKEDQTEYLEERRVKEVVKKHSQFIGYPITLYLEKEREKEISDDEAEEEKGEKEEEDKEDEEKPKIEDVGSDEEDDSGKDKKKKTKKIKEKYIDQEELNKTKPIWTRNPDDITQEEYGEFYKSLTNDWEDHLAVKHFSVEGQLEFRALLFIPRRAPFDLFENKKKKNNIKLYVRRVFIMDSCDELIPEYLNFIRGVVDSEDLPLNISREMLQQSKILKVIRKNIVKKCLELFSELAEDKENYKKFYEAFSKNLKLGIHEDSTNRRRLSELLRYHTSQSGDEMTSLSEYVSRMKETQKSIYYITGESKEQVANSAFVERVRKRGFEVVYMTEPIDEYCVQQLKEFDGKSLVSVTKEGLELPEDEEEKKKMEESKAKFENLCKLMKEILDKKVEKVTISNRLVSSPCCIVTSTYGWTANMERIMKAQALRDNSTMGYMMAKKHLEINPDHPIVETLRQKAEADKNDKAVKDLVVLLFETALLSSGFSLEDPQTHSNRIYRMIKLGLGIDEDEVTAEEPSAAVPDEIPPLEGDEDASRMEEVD
T1 sequence (O08915 whole entry partner): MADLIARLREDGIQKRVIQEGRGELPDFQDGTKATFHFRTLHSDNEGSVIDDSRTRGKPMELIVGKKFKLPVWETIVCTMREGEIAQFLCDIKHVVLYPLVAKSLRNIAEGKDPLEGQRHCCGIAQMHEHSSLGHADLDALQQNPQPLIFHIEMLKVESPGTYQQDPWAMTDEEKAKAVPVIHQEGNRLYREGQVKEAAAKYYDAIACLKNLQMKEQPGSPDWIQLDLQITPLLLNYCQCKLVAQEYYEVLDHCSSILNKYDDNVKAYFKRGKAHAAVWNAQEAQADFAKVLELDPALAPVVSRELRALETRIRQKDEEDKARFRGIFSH

Broadly, the EC50 is the midpoint of the concentration-response curve. Consider `O=Cc1c2[nH]c3ccccc3c2cc2[nH]c3ccccc3c12` [Compound 1, 6-Formylindolo[3,2-b]carbazole], for which the EC50 in series [1] (setting [6]) came out at 482 pM; in series [2], 79.9 pM; in series [3], 577 pM.

Take `c1ccc2c(c1)[nH]c1cc3c(cc12)[nH]c1ccccc13` [Compound 2, indolo[3,2-b]carbazole]: the EC50 in series [1] (setting [6]) turned out to be 980 pM; in series [2], 9.5 pM; in series [4], 640 pM; in series [3], 174 pM.

Consider `Cc1c2[nH]c3ccccc3c2cc2[nH]c3ccccc3c12` [Compound 3, 6-methylindolo[3,2-b]carbazole], for which the EC50 turned out to be 910 pM in series [1] (setting [6]), 58.8 pM in series [2], 308 pM in series [4] and 91.3 pM in series [3].

With `OCc1c2[nH]c3ccccc3c2cc2[nH]c3ccccc3c12` [Compound 4, 6-Hydroxymethylindolo[3,2-b]carbazole], the EC50 in series [1] (setting [6]) amounted to 922 pM; in series [2], 473 pM; in series [4] it was 4520 pM; in series [3], 5770 pM. Also, the “reduced activity in comparison to 6-FICZ” value in series [5] is reported as “more than 10 folds”.

For `Cc1c2[nH]c3ccccc3c2c(Br)c2[nH]c3ccccc3c12` [Compound 5, 6-Methyl-12-bromoindolo[3,2-b]carbazole], the EC50 is 920 pM in series [1], 59.8 pM in series [2], 328 pM in series [4] and 99.3 pM in series [3].

For the compound `Clc1cc2c(cc1Cl)Oc1cc(Cl)c(Cl)cc1O2` [TCDD, reference compound], the EC50 stood at 100 pM in series [1] (setting [6]), 59 pM in series [2], 570 pM in series [4] and 100 pM in series [3].

(Values after publication PMC11820409, “Synthesis and Evaluation of the AhR Activity of Indolo[3,2-b]carbazole Derivatives” (Molecules, 2025).)
